The source of these data is patent publication EP1935887A1, “Heterocyclic substituted carbonyl derivatives and their use as dopamine D3 receptor ligands” (Aventis Pharmaceuticals Inc., priority 2001, dated 2002).

The experiment addresses T1, Cloned Human Dopamine D3 Receptors (Homo sapiens, UniProt P35462).
T1 construct: expressed in transfected cells; membrane homogenate
As to the kind of experiment: [N-Methyl-3H]Spiroperidol binding to cloned human dopamine D3 receptors. The note with it: read-out: D3 Ki. In outline:
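Membranes from CHO cells stably expressing human D3 receptor, homogenised in 10% DMSO and stored at -80°C. Binding uses [N-methyl-3H]spiroperidol in Tris buffer, pH 7.7.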

One may read the Ki as the equilibrium dissociation constant of an inhibitor or competing ligand from its target.

T1 sequence (P35462 whole entry): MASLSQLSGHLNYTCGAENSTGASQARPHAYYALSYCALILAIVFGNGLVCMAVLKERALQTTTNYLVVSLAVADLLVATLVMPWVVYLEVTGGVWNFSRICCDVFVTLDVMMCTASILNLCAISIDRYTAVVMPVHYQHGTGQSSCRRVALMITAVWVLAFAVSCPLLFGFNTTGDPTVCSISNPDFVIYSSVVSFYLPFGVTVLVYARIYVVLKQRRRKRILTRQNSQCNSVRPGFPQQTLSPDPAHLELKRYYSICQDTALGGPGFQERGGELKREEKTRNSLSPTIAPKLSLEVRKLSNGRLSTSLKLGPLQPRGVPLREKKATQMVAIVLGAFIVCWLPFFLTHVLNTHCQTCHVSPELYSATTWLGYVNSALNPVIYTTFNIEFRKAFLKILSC

Regarding `C[C@H]1CC[C@H](NC(=O)[C@@H]2C[C@H]2CN2CCN(c3nn(-c4ccc(OC(F)(F)F)cc4)c4ccsc34)CC2)CC1` [compound 833876], the Ki amounted to 50.3 nM. Next, `O=C(NCCCn1ccnc1)[C@@H]1C[C@H]1CN1CCC(c2csc3cc(C(F)(F)F)ccc23)CC1` [compound 834003]: 3.51 nM. Next, `C[C@H]1CC[C@H](NC(=O)[C@@H]2C[C@H]2CN2CCC(c3csc4cc(C(F)(F)F)ccc34)CC2)CC1` [compound 834016]: 1.63 nM. With `COc1cccc2c(C3CCN(C[C@@H]4C[C@H]4C(=O)N[C@H]4CC[C@H](C)CC4)CC3)nn(C)c12` [compound 834054] the figure was 13.8 nM.
